Assay results published in patent publication US10807951B2, “mTORC1 modulators” (THE REGENTS OF THE UNIVERSITY OF CALIFORNIA, priority 2017, dated 2020).
“And” between values parts separate entries of the source, which are not always exact repeats. Equal entries are not always repeated. “Also recorded” adds a separate entry of the source. Where two headings read alike, the source gives them in different places.

What was measured:
mTORC1 [1] = assay: mTORC1 signaling in HeLa cells by immunoblotting; format: cell-based; conditions: for mTORC1-mediated signaling (p-ULK1, pS6K1, p-4E-BP1): amino acid stimulation
Protocol: HeLa cells were subjected to starvation/refeeding protocols as described in the previous section, then lysed in ice-cold lysis buffer (150 mM NaCl, 20 mM HEPES [pH 7.4], 2 mM EDTA, 0.3% CHAPS or 1% Triton X-100, and one tablet of EDTA-free protease inhibitors per 50 ml). Cell lysates were cleared by centrifugation at 13,000 rpm for 10 minutes in a microfuge. Samples were normalized to a total concentration of 1 mg/mL protein and prepared using sample buffer at 1×, then boiled for 5 minutes at 95 C. Samples were loaded onto 10% or 12% SDS-Page gels, and analyzed by immunoblotting.
Several of these compounds were also directly tested for their ability to inhibit mTORC1 signaling in immunoblotting-based assays. […] Thus, we pursued CC 1-44 for further characterization.

LAMTOR5 = LAMTOR5 (Homo sapiens, UniProt O43504); assay: Competitive isoTOP-ABPP with purified mTORC1, Rag GTPase and Lamtor complexes; format: binding
Text: To identify the specific druggable hotspot targeted by YP 1-44 within the TORC1 complex, we performed a chemoproteomic study using isotopic tandem orthogonal proteolysis-enabled activity-based protein profiling (isoTOP-ABPP). IsoTOP-ABPP uses reactivity-based chemical probes to profile proteome-wide reactive, functional, and druggable hotspots directly in complex proteomes. When used in a competitive manner, small-molecule covalent ligands can be competed against the binding of reactivity-based probes to facilitate the identification of druggable hotspots targeted by lead covalent ligands (5-7) (FIG. 4A). Here, we pre-treated human purified mTORC1, Rag GTPase and Lamtor complexes with either vehicle or YP 1-44, and subsequently labeled this reconstituted system with a broad cysteine-reactive probe iodoacetamide-alkyne (IA-alkyne). Any accessible cysteine druggable hotspot would be labeled with the IA-alkyne probe in the vehicle-treated control, but the site bound by YP 1-44 would no longer accessible to IA-alkyne binding. Subsequently, we used copper-catalyzed azide-alkyne cycloaddition to append an isotopically light (for control) or heavy (for YP 1-44-treated) biotin-azide tag bearing a TEV protease recognition peptide onto probe-labeled proteins, upon which we combined the control and treated proteomes in a 1:1 ratio, followed by avidin-enrichment, tryptic digestion, and elution of probe-modified tryptic peptides by TEV protease. The resulting peptides were analyzed by LC-LC/MS/MS and light-to-heavy ratios of probe-modified peptides were quantified. We identified two cysteines within LAMTOR5, C148 and C23 that were labeled with ratios of 0.51 and 3.7, respectively. If YP 1-44 bound to a particular cysteine, we would expect a higher (>2) light-to-heavy ratio.
IsoTOP-ABPP analyses were performed using a modified version of our previously reported method (PMID 28352901, 28186401). We pre-treated human purified mTORC1, Rag GTPase and Lamtor complexes (5 micrograms each) with DMSO vehicle or YP 1-44 (50 μM) for 30 min at 37° C. in phosphate-buffered saline (PBS), and then labeled with IA-alkyne (100 μM) for 1 h at room temperature. They were subsequently treated with isotopically light (control) or heavy (treated) TEV-biotin (100 μM) and copper-catalyzed azide-alkyne cycloaddition (CuAAC). For analysis of cysteine reactivity in primary colorectal tumor tissue, tumors were pooled and incubated with either 100 μM IA-alkyne and isotopically heavy TEV-biotin or 10 μM IA-alkyne and isotopically light TEV-biotin followed by CuAAC. Proteins were precipitated over one hour and pelleted by centrifugation at 6500×g. Proteins were washed 3 times with cold methanol then denatured and resolubilized by heating in 1.2% SDS/PBS to 85° C. for 5 min. Insoluble components were precipitated by centrifugation at 6500×g and soluble proteome was diluted in 5 ml PBS, for a final concentration of 0.2% SDS. Labeled proteins were bound to avidin-agarose beads (170 μL resuspended beads/sample, Thermo Pierce) while rotating overnight at 4° C. Bead-linked proteins were enriched by washing three times each in PBS and water, then resuspended in 6 M urea/PBS (Sigma-Aldrich) and reduced in dithiothreitol (1 mM, Sigma-Aldrich), alkylated with iodoacetamide (18 mM, Sigma-Aldrich), then washed and resuspended in 2 M urea/PBS with 1 mM calcium chloride and trypsinized overnight with 0.5 μg/μl sequencing grade trypsin (Promega). […]

Hela whole cell proteome = assay: Gel-based ABPP of IA-alkyne cysteine reactivity in Hela whole cell proteome
Text: Thus, we performed medicinal chemistry to optimize the potency and selectivity of our initial hits by addition of further bulk to the core YP 1-44 scaffold (FIGS. 9A-9C; FIG. 5B). We initially screened these compounds against both LAMTOR5 and the Ragulator complex using gel-based ABPP methods competing the binding of these YP 1-44 analogs against IA-alkyne labeling of these proteins (FIG. 5C, FIG. 9). We also tested these compounds against Hela cell whole proteome cysteine reactivity to get initial read-outs of proteome-wide selectivity (FIGS. 9A-9C, FIG. 5D).

RagA and RagC = assay: Immunofluorescence of Rag GTPases and LAMP2 in HEK-293A cells; format: cell-based; conditions: 2 h
Protocol: (§1) FIGS. 6A-6D. CC 1-44 inhibits mTORC1 signaling and activates autophagy. (FIG. 6A) Visual IP experiment monitoring binding of GFP-RagB to RFP-tagged, bead-bound Lamtor complex. […] (FIG. 6B) Immunofluorescence for endogenous RagA and LAMP2 in HEK-293A cells treated with DMSO, YP 1-44 or CC 1-44 for 2 h. […] (FIG. 6C) Immunofluorescence for endogenous mTOR and LAMP2 in HEK-293A cells treated with DMSO or CC 1-44 for 2 h. […] (FIG. 6D) Immunoblotting for autophagic markers LC3b and p62 from HEK-293A cells treated with DMSO (lane 1) or CC 1-44 (lane 3) for 2 h.
(§2) Next, we investigated the mechanism of mTORC1 inhibition by CC-1-44 using visual IP and immunofluorescence. […] Indeed, when we visualized RagA and RagC localization in CC 1-44-treated cells, their localization to LAMP2-positive lysosomes was increased, not decreased as for YP 1-44 (FIG. 6B). This observation pointed to a different mechanism for mTORC1 inactivation by CC 1-44. Rather than disrupting the integrity of the LAMTOR-Rag assembly, CC 1-44 prevents its activation, causing it to strongly accumulate at the lysosome in a conformation that is unable to bind to mTORC1.

mTOR = assay: Immunofluorescence of mTOR and LAMP2 in HEK-293A cells; format: cell-based; conditions: 2 h
Protocol: as §1, §2

mTORC1 [2] = assay: mTORC1 signaling in tissues of injected mice; conditions: injection 100 mg/kg, heart, skeletal muscle, kidney
[3] = compound 50 μM, IA-alkyne 100 μM, average of n=4

isoTOP-ABPP light-to-heavy ratio, LAMTOR5 C23 (LAMTOR5; [3]) | isoTOP-ABPP light-to-heavy ratio, LAMTOR5 C148 (LAMTOR5; [3]) | SMILES | mTORC1-mediated signaling (p-ULK1, pS6K1, p-4E-BP1) (mTORC1 [1]) | mTORC1-mediated signaling (p-ULK1, pS6K1, p-4E-BP1) (mTORC1 [1]; listed as YP1-44) | LAMTOR5 cysteines targeted (isoTOP-ABPP) (LAMTOR5) | proteome-wide selectivity (displacement of IA-alkyne cysteine reactivity) (Hela whole cell proteome) | RagA and RagC localization to LAMP2-positive lysosomes (RagA and RagC) | mTOR/mTORC1 localization to lysosomes (mTOR) | phosphorylation of canonical mTORC1 substrates S6K1, 4E-BP1 and ULK1 (mTORC1 [1]; 10 μM) | potency of mTORC1 blockade relative to YP 1-44 (mTORC1 [1]; immunoblotting) | LAMTOR5 cysteines targeted (isoTOP-ABPP) (LAMTOR5; listed as CC-1-44) | mTORC1 signaling as assessed by phospho-S6 and 4EBP1 (mTORC1 [2])
> 3 and 3.7 | 0.51 | C=CC(=O)n1ccc2ccccc21 [YP 1-44] | completely inhibited | suppresses mTORC1 activation by amino acids | target C23 and C148 of LAMTOR5; also recorded: C23 of LAMTOR5 was the primary site; also recorded: modified C23 and C148 in LAMTOR5 | non-selectivity at 100 μM and above; also recorded: not sufficiently selective at higher concentrations (>100 μM) | causes RagA dissociation from Lamtor; also recorded: decreased | completely dispersed from lysosomes | – | – | – | –
– | – | C=CC(=O)N1CCc2c(OCc3cc(C(F)(F)F)cc(C(F)(F)F)c3)cccc21 [CC 1-44] | – | – | modified C23 and C148 in LAMTOR5 | selectivity at up to 1 mM; also recorded: apparent selectivity up to 1 mM | increased RagA clustering on lysosomes | induces dissociation of mTOR from lysosomes; also recorded: completely dispersed from lysosomes | completely inhibited | potency comparable to YP 1-44 | target C23 and C148 of LAMTOR5 | dramatic inhibition of mTORC1 signaling
